From patent US20240270762A1, “PENICILLIN-BINDING PROTEIN INHIBITORS” (priority 2021, published 2024)
In brackets after ≈: the same amount, converted by molar mass.

Legend:
E. coli AG100 = experiment: microbe, parasite or virus in culture; format: cell-based; details: Escherichia coli, AG100, read-out: MIC E. coli AG100
E. coli 901C = experiment: microbe, parasite or virus in culture; format: cell-based; details: Escherichia coli, read-out: MIC E. coli 901C
K. pneumoniae UMM = experiment: microbe, parasite or virus in culture; format: cell-based; details: Klebsiella pneumoniae, read-out: MIC K. pneumoniae UMM
P. aeruginosa ATCC 27853 = experiment: microbe, parasite or virus in culture; format: cell-based; details: Pseudomonas aeruginosa, ATCC27853, read-out: MIC P. aeruginosa ATCC 27853
A. baumannii ATCC 19606 = experiment: microbe, parasite or virus in culture; format: cell-based; details: Acinetobacter baumannii, ATCC19606, read-out: MIC, A. baumannii ATCC 19606
N. gonorrhoeae WHO Z = experiment: Liquid broth MIC in Fastidious broth; details: Neisseria gonorrhoeae, read-out: Minimum Inhibitory Concentration (MIC), N. gonorrhoeae WHO Z
Protocol: Additional antibacterial testing of the series was performed in 8 reference strains of N. gonorrhoeae (ATCC 49226, FA1090, MS 11, WHO G, WHO L, WHO M, WHO K, WHO X, WHO Z, WHO Q, CDC-0197). ATCC 49226, FA1090, MS11, WHO G, WHO L, and WHO M produce wild type or wild-type like PBP2. WHO K, WHO X, WHO Z, WHO Q, and CDC-0197 produce mosaic PBP2. Liquid broth-based assays were used for antibacterial testing of PBP inhibitors in Neisseria gonorrhoeae. Briefly, cryo-preserved bacterial cultures of clinical strains were streaked for isolation on Chocolate Agar (72 g/L (2×) GC Agar Base (BD #228950) and 2% (2×) Hemoglobin was autoclaved at 121° C. for 20 minutes to sterilize. Once cooled to ˜50° C. the 2×GC Agar Base and 2× Hemoglobin solutions are combined and 1% IsoVitaleX Enrichment (BD #211876) was added to the solution). Strains were incubated at 36° C. and 5% CO2 to allow growth of colonies, 24 hours before inoculum preparation. 2-fold serial dilutions of test compounds were conducted in a 96 well plate with a final volume of 75 μL per well at 2-fold the final desired concentration in Fastidious broth (Remel #R07664). For preparation of assay inoculum, a direct suspension was prepared by aseptically swabbing 10-15 colonies from agar plates into culture tubes containing 2 mL of fresh sterile saline. After the dilution plates were set up, direct suspensions were then diluted in a cuvette containing sterile saline and the optical density was measured at 600 nm. Inocula were diluted such that 75 μL of this culture in Fastidious broth results in a starting bacterial concentration of 5×10^5 CFU/mL when added to the dilution plates. The plates were incubated for ˜24 hours at 36° C. and 5% CO2.

Row | Compound | MIC (E. coli AG100) | MIC (E. coli 901C) | MIC (K. pneumoniae UMM) | MIC (P. aeruginosa ATCC 27853) | MIC (A. baumannii ATCC 19606) | MIC (N. gonorrhoeae WHO Z)
1 | CC(=O)N1CCC[C@@H]1C(=O)N[C@H](C(=O)N[C@H]1Cc2cccc(C(=O)O)c2OB1O)c1ccc(P(=O)(O)O)cc1 [Example 33, (3R)-3-(2-((R)-1-acetylpyrrolidine-2-carboxamido)-2-(4-phosphonophenyl)acetamido)-2-hydroxy-3,4-dihydro-2H-benzo[e][1,2]oxaborinine-8-carboxylic acid] | > 128 µg/mL | 32 to 64 µg/mL (≈ 57.2 to 114 µM) | > 128 µg/mL | > 128 µg/mL | > 128 µg/mL | 16 to 32 µg/mL (≈ 28.6 to 57.2 µM)
2 | CS(=O)(=O)N1CCC[C@@H]1C(=O)N[C@H](C(=O)N[C@H]1Cc2cccc(C(=O)O)c2OB1O)c1ccc(P(=O)(O)O)cc1 [Example 34, (R)-2-hydroxy-3-((S)-2-((R)-1-(methylsulfonyl)pyrrolidine-2-carboxamido)-2-(4-phosphonophenyl)acetamido)-3,4-dihydro-2H-benzo[e][1,2]oxaborinine-8-carboxylic acid] | > 128 µg/mL | 8 to 16 µg/mL (≈ 13.4 to 26.9 µM) | > 128 µg/mL | > 128 µg/mL | > 128 µg/mL | 16 to 32 µg/mL (≈ 26.9 to 53.8 µM)
3 | CS(=O)(=O)N1CCC[C@@H]1C(=O)N[C@@H](C(=O)N[C@H]1Cc2cccc(C(=O)O)c2OB1O)c1ccc(P(=O)(O)O)cc1 [Example 35, (R)-2-hydroxy-3-((R)-2-((R)-1-(methylsulfonyl)pyrrolidine-2-carboxamido)-2-(4-phosphonophenyl)acetamido)-3,4-dihydro-2H-benzo[e][1,2]oxaborinine-8-carboxylic acid] | > 128 µg/mL | 8 to 16 µg/mL (≈ 13.4 to 26.9 µM) | > 128 µg/mL | > 128 µg/mL | > 128 µg/mL | 4 to 8 µg/mL (≈ 6.72 to 13.4 µM)
4 | O=C(O)c1cccc2c1OB(O)[C@@H](NC(=O)[C@@H](NC(=O)N1CCCCC1=O)c1ccc(P(=O)(O)O)cc1)C2 [Example 36, (R)-2-hydroxy-3-((S)-2-(2-oxopiperidine-1-carboxamido)-2-(4-phosphonophenyl)acetamido)-3,4-dihydro-2H-benzo[39e][1,2]oxaborinine-8-carboxylic acid] | > 128 µg/mL | 8 to 16 µg/mL (≈ 14.7 to 29.3 µM) | > 128 µg/mL | > 128 µg/mL | > 128 µg/mL | 16 to 32 µg/mL (≈ 29.3 to 58.7 µM)
5 | O=C(O)c1cccc2c1OB(O)[C@@H](NC(=O)[C@H](NC(=O)N1CCCCC1=O)c1ccc(P(=O)(O)O)cc1)C2 [Example 37, (R)-2-hydroxy-3-((R)-2-(2-oxopiperidine-1-carboxamido)-2-(4-phosphonophenyl)acetamido)-3,4-dihydro-2H-benzo[e][1,2]oxaborinine-8-carboxylic acid] | > 128 µg/mL | < 1 µg/mL | > 128 µg/mL | > 128 µg/mL | > 128 µg/mL | 1 to 2 µg/mL (≈ 1.83 to 3.67 µM)
6 | CN1CCCN(C(=O)NC(C(=O)N[C@H]2Cc3cccc(C(=O)O)c3OB2O)c2ccc(P(=O)(O)O)cc2)C1=O (stereo partly drawn) [Example 38, (3R)-2-hydroxy-3-(2-(3-methyl-2-oxohexahydropyrimidine-1-carboxamido)-2-(4-phosphonophenyl)acetamido)-3,4-dihydro-2H-benzo[e][1,2]oxaborinine-8-carboxylic acid] | > 128 µg/mL | 2 to 4 µg/mL (≈ 3.57 to 7.14 µM) | > 128 µg/mL | > 128 µg/mL | > 128 µg/mL | 1 to 2 µg/mL (≈ 1.78 to 3.57 µM)
7 | O=C(O)c1cccc2c1OB(O)[C@@H](NC(=O)[C@@H](NC(=O)N1CCNC1=O)c1ccc(P(=O)(O)O)cc1)C2 [Example 39, (R)-2-hydroxy-3-((S)-2-(2-oxoimidazolidine-1-carboxamido)-2-(4-phosphonophenyl)acetamido)-3,4-dihydro-2H-benzo[e][1,2]oxaborinine-8-carboxylic acid] | > 128 µg/mL | 2 to 4 µg/mL (≈ 3.76 to 7.52 µM) | > 128 µg/mL | > 128 µg/mL | > 128 µg/mL | 1 to 2 µg/mL (≈ 1.88 to 3.76 µM)
8 | O=C(O)c1cccc2c1OB(O)[C@@H](NC(=O)[C@H](NC(=O)N1CCNC1=O)c1ccc(P(=O)(O)O)cc1)C2 [Example 40, (R)-2-hydroxy-3-((R)-2-(2-oxoimidazolidine-1-carboxamido)-2-(4-phosphonophenyl)acetamido)-3,4-dihydro-2H-benzo[e][1,2]oxaborinine-8-carboxylic acid] | 32 to 64 µg/mL (≈ 60.1 to 120 µM) | < 1 µg/mL | 32 to 64 µg/mL (≈ 60.1 to 120 µM) | 32 to 64 µg/mL (≈ 60.1 to 120 µM) | 32 to 64 µg/mL (≈ 60.1 to 120 µM) | < 1 µg/mL
9 | CN1CCN(C(=O)NC(C(=O)N[C@H]2Cc3cccc(C(=O)O)c3OB2O)c2ccc(P(=O)(O)O)cc2)C1=O (stereo partly drawn) [Example 41, (3R)-2-hydroxy-3-(2-(3-methyl-2-oxoimidazolidine-1-carboxamido)-2-(4-phosphonophenyl)acetamido)-3,4-dihydro-2H-benzo[e][1,2]oxaborinine-8-carboxylic acid] | 32 to 64 µg/mL (≈ 58.6 to 117 µM) | < 1 µg/mL | 32 to 64 µg/mL (≈ 58.6 to 117 µM) | > 128 µg/mL | 32 to 64 µg/mL (≈ 58.6 to 117 µM) | < 1 µg/mL
10 | CCN1CCN(C(=O)NC(C(=O)N[C@H]2Cc3cccc(C(=O)O)c3OB2O)c2ccc(P(=O)(O)O)cc2)C1=O (stereo partly drawn) [Example 42, (3R)-3-(2-(3-ethyl-2-oxoimidazolidine-1-carboxamido)-2-(4-phosphonophenyl)acetamido)-2-hydroxy-3,4-dihydro-2H-benzo[e][1,2]oxaborinine-8-carboxylic acid] | 32 to 64 µg/mL (≈ 57.1 to 114 µM) | < 1 µg/mL | 32 to 64 µg/mL (≈ 57.1 to 114 µM) | > 128 µg/mL | 32 to 64 µg/mL (≈ 57.1 to 114 µM) | < 1 µg/mL
11 | CS(=O)(=O)N1CCC[C@H]1C(=O)N[C@H](C(=O)N[C@H]1Cc2cccc(C(=O)O)c2OB1O)c1ccc(P(=O)(O)O)cc1 [Example 43, (R)-2-hydroxy-3-((S)-2-((S)-1-(methylsulfonyl)pyrrolidine-2-carboxamido)-2-(4-phosphonophenyl)acetamido)-3,4-dihydro-2H-benzo[e][1,2]oxaborinine-8-carboxylic acid] | > 128 µg/mL | 8 to 16 µg/mL (≈ 13.4 to 26.9 µM) | > 128 µg/mL | > 128 µg/mL | > 128 µg/mL | 4 to 8 µg/mL (≈ 6.72 to 13.4 µM)
12 | CS(=O)(=O)N1CCC[C@H]1C(=O)N[C@@H](C(=O)N[C@H]1Cc2cccc(C(=O)O)c2OB1O)c1ccc(P(=O)(O)O)cc1 [Example 44, (R)-2-hydroxy-3-((R)-2-((S)-1-(methylsulfonyl)pyrrolidine-2-carboxamido)-2-(4-phosphonophenyl)acetamido)-3,4-dihydro-2H-benzo[e][1,2]oxaborinine-8-carboxylic acid] | > 128 µg/mL | 2 to 4 µg/mL (≈ 3.36 to 6.72 µM) | > 128 µg/mL | > 128 µg/mL | > 128 µg/mL | 1 to 2 µg/mL (≈ 1.68 to 3.36 µM)
13 | O=C(O)c1cccc2c1OB(O)[C@@H](NC(=O)C(NC(=O)[C@H]1CCCN1)c1ccc(P(=O)(O)O)cc1)C2 (stereo partly drawn) [Example 52, (3R)-2-hydroxy-3-(2-(4-phosphonophenyl)-2-((R)-pyrrolidine-2-carboxamido)acetamido)-3,4-dihydro-2H-benzo[e][1,2]oxaborinine-8-carboxylic acid] | > 128 µg/mL | 32 to 64 µg/mL (≈ 61.9 to 124 µM) | 32 to 64 µg/mL (≈ 61.9 to 124 µM) | > 128 µg/mL | > 128 µg/mL | 16 to 32 µg/mL (≈ 30.9 to 61.9 µM)
14 | O=C1CC[C@H](C(=O)NC(C(=O)N[C@H]2Cc3cccc(C(=O)O)c3OB2O)c2ccc(P(=O)(O)O)cc2)N1 (stereo partly drawn) [Example 53, (3R)-2-hydroxy-3-(2-((R)-5-oxopyrrolidine-2-carboxamido)-2-(4-phosphonophenyl)acetamido)-3,4-dihydro-2H-benzo[e][1,2]oxaborinine-8-carboxylic acid] | > 128 µg/mL | 8 to 16 µg/mL (≈ 15.1 to 30.1 µM) | > 128 µg/mL | > 128 µg/mL | > 128 µg/mL | 16 to 32 µg/mL (≈ 30.1 to 60.2 µM)
15 | O=C(O)c1cccc2c1OB(O)[C@@H](NC(=O)C(NC(=O)N1CCCNC1=O)c1ccc(P(=O)(O)O)cc1)C2 (stereo partly drawn) [Example 56, (3R)-2-hydroxy-3-(2-(2-oxohexahydropyrimidine-1-carboxamido)-2-(4-phosphonophenyl)acetamido)-3,4-dihydro-2H-benzo[e][1,2]oxaborinine-8-carboxylic acid] | > 128 µg/mL | 2 to 4 µg/mL (≈ 3.66 to 7.32 µM) | > 128 µg/mL | > 128 µg/mL | > 128 µg/mL | 4 to 8 µg/mL (≈ 7.32 to 14.6 µM)
16 | O=C(O)c1cccc2c1OB(O)[C@@H](NC(=O)C(NC(=O)N1CCCC1=O)c1ccc(P(=O)(O)O)cc1)C2 (stereo partly drawn) [Example 57, (3R)-2-hydroxy-3-(2-(2-oxopyrrolidine-1-carboxamido)-2-(4-phosphonophenyl)acetamido)-3,4-dihydro-2H-benzo[e][1,2]oxaborinine-8-carboxylic acid] | > 128 µg/mL | < 1 µg/mL | 32 to 64 µg/mL (≈ 60.2 to 120 µM) | > 128 µg/mL | > 128 µg/mL | 1 to 2 µg/mL (≈ 1.88 to 3.76 µM)
17 | NS(=O)(=O)NC(C(=O)N[C@H]1Cc2cccc(C(=O)O)c2OB1O)c1ccc(P(=O)(O)O)cc1 (stereo partly drawn) [Example 58, (3R)-2-hydroxy-3-(2-(4-phosphonophenyl)-2-(sulfamoylamino)acetamido)-3,4-dihydro-2H-benzo[e][1,2]oxaborinine-8-carboxylic acid] | > 128 µg/mL | > 128 µg/mL | > 128 µg/mL | > 128 µg/mL | > 128 µg/mL | 16 to 32 µg/mL (≈ 32.1 to 64.1 µM)
18 | CS(=O)(=O)NC(C(=O)N[C@H]1Cc2cccc(C(=O)O)c2OB1O)c1ccc(P(=O)(O)O)cc1 (stereo partly drawn) [Example 59, (3R)-2-hydroxy-3-(2-(methylsulfonamido)-2-(4-phosphonophenyl)acetamido)-3,4-dihydro-2H-benzo[e][1,2]oxaborinine-8-carboxylic acid] | > 128 µg/mL | 32 to 64 µg/mL (≈ 64.2 to 128 µM) | > 128 µg/mL | > 128 µg/mL | > 128 µg/mL | 16 to 32 µg/mL (≈ 32.1 to 64.2 µM)
